Test results as given in US10604521B2, “Crystalline forms of PLX3397 hydrochloride, processes for preparation and use thereof” (Crystal Pharmaceutical (Suzhou) Co., Ltd., priority 2016, dated 2020).
Counter-ions that a name gives are not always drawn.

Assays:
[1] = Stability assessment of Form CS3 stored at 25° C./60% RH; assay type: physicochemical
Method: Form CS3 of the present disclosure was stored at 25° C./60% RH for 90 days. Samples were taken after 15, 30 and 90 days to investigate the stability of From CS3. […] XRPD patterns overlay before and after storage for 90 days was substantially as depicted in FIG. 15.

[2] = Particle size distribution (PSD), laser particle size analyzer, wet process; assay type: physicochemical; conditions: volume distribution, dispersion medium Isopar G
Method: The particle size distribution test in the present disclosure is acquired by the S3500 laser particle size analyzer of Microtrac. Microtrac S3500 is equipped with the SDC (Sample Delivery Controller). The test is carried out by wet process, and the dispersion medium is Isopar G The parameters are as follow: [table] Mv: Average particle size calculated by volume. D10: particle size which accounts for 10% of the particle size distribution (volume distribution). D50: particle size which accounts for 50% of the particle size distribution (volume distribution), also known as the median particle size. D90: particle size which accounts for 90% of the particle size distribution (volume distribution). PSD was performed on Form CS3 of the present disclosure and Form C of WO2016179415.

[3] = Mechanical stability: grinding in agate mortar, XRPD; assay type: physicochemical; conditions: grinding for 5 minutes in agate mortar
Method: A certain amount of Form C of WO2016179415, Form CS2 and Form CS3 samples were placed in an agate mortar. After grinding for 5 minutes, the obtained solid was collected for XRPD characterization. The results of Form C of WO2016179415, Form CS2 and Form CS3 were substantially as depicted in FIG. 16, FIG. 17 and FIG. 18, respectively.

[4] = Hygroscopicity test by dynamic vapor sorption (DVS), XRPD before and after; assay type: physicochemical; conditions: 40%-95%-0-95% RH cycle at 25° C.
Method: Dynamic Vapor Sorption (DVS) is measured via a SMS (Surface Measurement Systems Ltd.) intrinsic DVS. Typical Parameters for DVS test are as follows: Temperature: 25° C. Gas and flow rate: N2, 200 mL/min dm/dt: 0.002%/min RH range: 0% RH to 95% RH 6.2 mg of monohydrochloride Form CS2 was placed into dynamic vapor sorption (DVS) instrument, and then went through a 40%-95%-0-95% RH cycle at 25° C. The DVS plot was substantially as depicted in FIG. 10. The XRPD patterns overlay of solids before and after DVS test was substantially as depicted in FIG. 11 (Top: XRPD pattern before DVS; Bottom: XRPD pattern after DVS). […] 7.9 mg of dihydrochloride Form CS3 was placed into dynamic vapor sorption (DVS) instrument, and then went through a 40%-95%-0-95% RH cycle at 25° C. The DVS plot was substantially as depicted in FIG. 12. The XRPD patterns overlay of solids before and after DVS test was substantially as depicted in FIG. 13 (Top: XRPD pattern before DVS; Bottom: XRPD pattern after DVS).

[5] = Dynamic solubility (saturated solutions, HPLC); assay type: physicochemical; conditions: monohydrochloride
Method: High Performance Liquid Chromatography (HPLC) data in the present disclosure are collected from Agilent 1100 with diode array detector (DAD). The HPLC method parameters for solubility test in the present disclosure are as follows:
4. Injection Volume: 4 μL
5. Detection wavelength: 230 nm
6. Column Temperature: 40° C.
7. Diluent: 50% Acetonitrile
Form CS2 of the present disclosure and Form C of WO2016179415 were suspended into SGF (Simulated gastric fluids) and water to get saturated solutions. After equilibrated for 1 h and 4 h, concentrations of the saturated solutions were measured by HPLC.

[6] = Stability assessment of Form CS2 stored at 5° C. (XRPD and HPLC); assay type: physicochemical; conditions: for Purity: HPLC; for Solid Form: XRPD
Method: Form CS2 of the present disclosure was stored at 5° C. Samples were taken after 15 and 30 days to test XRPD and HPLC. The stability of From CS2 was mainly investigated. […] XRPD patterns overlay before and after storage for 30 days was substantially as depicted in FIG. 14.

[7] = stored at 80° C. for 7 days; cited from earlier work

## FC(F)(F)c1ccc(CNc2ccc(Cc3c[nH]c4ncc(Cl)cc34)cn2)cn1 [Form CS3, PLX3397 dihydrochloride]
[1]; 15 days
  Purity: 99.60%
  Solid Form: No form change
[1]; 30 days
  Purity: 99.64%
  Solid Form: No form change
[1]; 90 days
  Purity: 99.50%
  Solid Form: No form change
[1]; Initial
  Purity: 99.51%
  Solid Form: No form change
[2]; dihydrochloride
  D(10): 6.55 μm
  D(50): 47.85 μm
  D(90): 194.3 μm
[3]; dihydrochloride
  Crystalline form after grinding: crystallinity of Form CS2 and Form CS3 decreased but the crystalline forms remained unchanged
[4]
  Form change after DVS test: No form change

## FC(F)(F)c1ccc(CNc2ccc(Cc3c[nH]c4ncc(Cl)cc34)cn2)cn1 [Form C, PLX3397 monohydrochloride, reference compound]
[2]; monohydrochloride
  D(10): 2.35 μm
  D(50): 18.26 μm
  D(90): 118.8 μm
[5]; H2O, 1 h
  Solubility: 0.08 mg/mL
[5]; H2O, 4 h
  Solubility: 0.60 mg/mL
[5]; SGF, 1 h
  Solubility: 0.49 mg/mL
[5]; SGF, 4 h
  Solubility: 0.56 mg/mL
[3]; listed as Form C of WO2016179415, monohydrochloride
  Crystalline form after grinding: substantially changed to amorphous

## FC(F)(F)c1ccc(CNc2ccc(Cc3c[nH]c4ncc(Cl)cc34)cn2)cn1 [Form CS2, PLX3397 monohydrochloride]
[5]; H2O, 1 h
  Solubility: 2.17 mg/mL
[5]; H2O, 4 h
  Solubility: 1.29 mg/mL
[5]; SGF, 1 h
  Solubility: 1.13 mg/mL
[5]; SGF, 4 h
  Solubility: 1.28 mg/mL
[3]; monohydrochloride
  Crystalline form after grinding: crystallinity of Form CS2 and Form CS3 decreased but the crystalline forms remained unchanged
[4]
  Form change after DVS test: No form change
[6]; 15 days
  Purity: 99.45%
  Solid Form: No form change
[6]; 30 days
  Purity: 99.44%
  Solid Form: No form change
[6]; Initial
  Purity: 99.53%
  Solid Form: No form change

## FC(F)(F)c1ccc(CNc2ccc(Cc3c[nH]c4ncc(Cl)cc34)cn2)cn1 [Form A, PLX3397 monohydrochloride]
[7]
  Form change on storage: converted to Form C
